Patent US5916889A, “1,4-disubstituted piperazines” (Novo Nordisk A/S, priority 1996, dated 1999)

Test system: histamine induced paw oedema
Experiment: Histamine induced paw oedema test (rat)
Assay type: in vivo, rat (male Sprague-Dawley)
Details: 1.0 mg/kg, intraperitoneally 15 minutes before the anaesthetics, paw swelling 20 minutes after histamine (50 microliter, 3 mg/ml)
Protocol: Compounds of formula I may be used to treat all painful, hyperalgesic and/or inflammatory conditions in which C-fibres play a pathophysiological role by eliciting neurogenic pain or inflammation, i.e.:
I. Histamine induced paw oedema
The rat histamine paw oedema test was performed essentially as described by Amann et al. (Europ. J. Pharmacol. 279, 227-231, 1995). In brief 250-300 g male Sprague-Dawley rats were anaesthetized with pentobarbital sodium, and placed on a 32 degree (Celsius) heated table. Ten minutes later histamine (50 micoliter, 3 mg/ml) was injected in the right hind paw and 20 minutes hereafter the paw swelling was determined by water plethysmography (Ugo Basile). Test compounds were administered intraperitoneally at 15 minutes before the anaesthetics.
Values for inhibition of histamine induced oedema response for some representative compounds are recorded in table 1.

SMILES	% Oedema inhibition [%]
Cl.Cl.O=C(O)c1cccnc1N1CCN(CCC=C2c3cc(Cl)ccc3OCOc3ccc(Cl)cc32)CC1 [Example 2, 2-(4-(3-(2,10-Dichloro-12H-dibenzo[d,g][1,3]dioxocin-12-ylidene)-1-propyl)-piperazin-1-yl)-3-pyridinecarboxylic acid dihydrochloride]	24
Cl.O=C(O)c1cccc(N2CCN(CCCN3c4ccccc4CCc4ccccc43)CC2)n1 [Example 8, 6-(4-(3-(10,11-Dihydro-5H-dibenz[b,f]azepin-5-yl)-1-propyl)-1-piperazinyl)-2-pyridinecarboxylic acid hydrochloride]	61
